pIC50: −log10 of the molar value. Values belong to the molecule of their own block, whether it stands above or below them.
Assays:
[1] = tested on: NCI-H1975; test: Induction of DNA damage in human NCI-H1975 cells assessed as DNA tail formation at 8 uM incubated for 48 hrs by Comet assay relative to control; assay type: functional
[2] = tested on: NCI-H1975; test: Induction of cell cycle arrest in human NCI-H1975 cells assessed as accumulation at G2/M phase at 4 uM incubated for 48 hrs by PI staining based flow cytometry relative to control; assay type: functional
[3] = tested on: NCI-H1975; test: Induction of cell cycle arrest in human NCI-H1975 cells assessed as accumulation at G2/M phase at 4 uM incubated for 48 hrs in presence of Irinotecan by PI staining based flow cytometry relative to control; assay type: functional
[4] = tested on: NCI-H1975; test: Induction of apoptosis in human NCI-H1975 cells at 4 uM incubated for 24 hrs by Annexin V-FITC/PI staining based flow cytometry relative to control; assay type: functional
[5] = tested on: NCI-H1975; test: Induction of apoptosis in human NCI-H1975 cells at 4 uM incubated for 24 hrs in presence of Irinotecan by Annexin V-FITC/PI staining based flow cytometry relative to control; assay type: functional
[6] = Toxicity BALB/c nude mouse xenografted with human NCI-H1975 cells assessed as body weight loss at 100 mg/kg, po qd in presence of Irinotecan treated for 21 days (Rvb > 11.5 %); assay type: organism-based; settings: in vivo, 504 h, time 21 day
[7] = target: Histone deacetylase 2 (Homo sapiens, UniProt Q92769); test: Inhibition of HDAC2 (unknown origin)
[8] = target: Histone deacetylase 3 (Homo sapiens, UniProt O15379)
Description: Inhibition of HDAC3 (unknown origin)

[9] = target: Histone deacetylase 4 (Homo sapiens, UniProt P56524)
Description: Inhibition of HDAC4 (unknown origin)

[10] = target: Histone deacetylase 5 (Homo sapiens, UniProt Q9UQL6)
Description: Inhibition of HDAC5 (unknown origin)

[11] = target: T1, Protein deacetylase HDAC6 (Homo sapiens, UniProt Q9UBN7)
T1 sequence (Q9UBN7 whole entry): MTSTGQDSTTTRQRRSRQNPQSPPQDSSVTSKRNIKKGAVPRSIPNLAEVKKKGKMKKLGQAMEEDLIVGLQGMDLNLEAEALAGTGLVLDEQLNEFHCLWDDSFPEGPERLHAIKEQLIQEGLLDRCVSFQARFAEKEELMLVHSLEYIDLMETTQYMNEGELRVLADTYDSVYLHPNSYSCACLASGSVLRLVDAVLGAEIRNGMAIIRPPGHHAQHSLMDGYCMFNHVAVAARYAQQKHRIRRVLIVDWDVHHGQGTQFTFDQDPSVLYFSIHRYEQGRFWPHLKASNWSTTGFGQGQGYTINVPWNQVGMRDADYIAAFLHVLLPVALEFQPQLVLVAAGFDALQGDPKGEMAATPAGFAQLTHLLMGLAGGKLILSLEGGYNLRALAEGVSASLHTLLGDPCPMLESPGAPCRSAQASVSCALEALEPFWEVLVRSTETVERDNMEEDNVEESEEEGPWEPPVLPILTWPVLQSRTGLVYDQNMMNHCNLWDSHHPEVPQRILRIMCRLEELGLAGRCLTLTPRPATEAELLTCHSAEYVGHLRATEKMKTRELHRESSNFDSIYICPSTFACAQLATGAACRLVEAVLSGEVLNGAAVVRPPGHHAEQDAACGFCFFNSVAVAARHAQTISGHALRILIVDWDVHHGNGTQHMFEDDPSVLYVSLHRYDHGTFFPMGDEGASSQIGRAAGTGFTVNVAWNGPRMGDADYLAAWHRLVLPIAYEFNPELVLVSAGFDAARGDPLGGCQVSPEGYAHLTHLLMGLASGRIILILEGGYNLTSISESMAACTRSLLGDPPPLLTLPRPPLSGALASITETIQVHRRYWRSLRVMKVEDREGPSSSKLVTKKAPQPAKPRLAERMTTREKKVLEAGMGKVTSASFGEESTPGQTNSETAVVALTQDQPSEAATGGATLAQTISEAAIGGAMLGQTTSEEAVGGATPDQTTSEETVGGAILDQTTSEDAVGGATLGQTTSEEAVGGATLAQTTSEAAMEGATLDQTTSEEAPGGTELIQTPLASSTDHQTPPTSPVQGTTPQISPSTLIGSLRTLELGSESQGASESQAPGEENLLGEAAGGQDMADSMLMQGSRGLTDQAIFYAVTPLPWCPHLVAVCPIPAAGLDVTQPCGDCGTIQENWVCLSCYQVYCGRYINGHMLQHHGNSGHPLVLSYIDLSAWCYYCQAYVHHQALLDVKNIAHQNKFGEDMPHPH
Description: Inhibition of HDAC6 (unknown origin)

[12] = target: T2, Histone deacetylase 7 (Homo sapiens, UniProt Q8WUI4)
T2 sequence (Q8WUI4 whole entry): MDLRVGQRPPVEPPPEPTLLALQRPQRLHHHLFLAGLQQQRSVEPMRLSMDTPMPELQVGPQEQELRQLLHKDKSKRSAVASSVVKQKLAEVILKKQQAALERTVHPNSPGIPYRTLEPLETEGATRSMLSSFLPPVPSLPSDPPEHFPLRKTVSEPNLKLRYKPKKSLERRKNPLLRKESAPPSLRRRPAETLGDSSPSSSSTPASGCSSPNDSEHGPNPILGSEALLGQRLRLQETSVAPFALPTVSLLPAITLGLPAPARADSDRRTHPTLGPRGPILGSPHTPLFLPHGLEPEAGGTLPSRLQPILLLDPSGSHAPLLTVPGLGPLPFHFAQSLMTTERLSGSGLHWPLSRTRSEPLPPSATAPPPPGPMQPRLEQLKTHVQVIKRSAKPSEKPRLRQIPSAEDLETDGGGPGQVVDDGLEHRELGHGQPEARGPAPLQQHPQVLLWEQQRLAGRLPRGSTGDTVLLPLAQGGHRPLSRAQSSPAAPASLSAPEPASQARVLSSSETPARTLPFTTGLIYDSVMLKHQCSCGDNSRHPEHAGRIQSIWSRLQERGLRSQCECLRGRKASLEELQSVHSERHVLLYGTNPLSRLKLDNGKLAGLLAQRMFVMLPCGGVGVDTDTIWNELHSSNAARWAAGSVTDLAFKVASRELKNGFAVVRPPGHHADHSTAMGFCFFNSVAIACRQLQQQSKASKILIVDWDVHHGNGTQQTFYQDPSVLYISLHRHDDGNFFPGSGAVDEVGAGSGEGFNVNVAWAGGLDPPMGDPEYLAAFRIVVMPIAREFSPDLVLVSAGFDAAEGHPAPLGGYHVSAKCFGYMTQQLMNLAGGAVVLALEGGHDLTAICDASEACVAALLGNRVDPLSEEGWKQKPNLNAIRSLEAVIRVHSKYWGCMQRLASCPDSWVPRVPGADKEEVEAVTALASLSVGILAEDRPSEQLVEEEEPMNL
Description: Inhibition of HDAC7 (unknown origin)

[13] = target: T3, Histone deacetylase 8 (Homo sapiens, UniProt Q9BY41)
T3 sequence (Q9BY41 whole entry): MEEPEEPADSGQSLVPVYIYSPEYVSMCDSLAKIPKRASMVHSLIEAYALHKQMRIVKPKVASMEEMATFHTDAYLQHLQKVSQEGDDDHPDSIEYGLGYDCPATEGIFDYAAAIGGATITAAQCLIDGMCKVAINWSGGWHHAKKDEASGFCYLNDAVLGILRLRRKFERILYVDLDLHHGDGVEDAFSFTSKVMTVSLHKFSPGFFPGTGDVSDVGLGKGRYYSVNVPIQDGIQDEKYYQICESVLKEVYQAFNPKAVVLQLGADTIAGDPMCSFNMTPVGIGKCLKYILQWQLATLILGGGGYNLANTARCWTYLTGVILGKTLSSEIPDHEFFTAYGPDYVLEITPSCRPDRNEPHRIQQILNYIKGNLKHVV
Description: Inhibition of HDAC8 (unknown origin)

[14] = target: Histone deacetylase 9 (Homo sapiens, UniProt Q9UKV0)
Description: Inhibition of HDAC9 (unknown origin)

[15] = target: T4, Polyamine deacetylase HDAC10 (Homo sapiens, UniProt Q969S8)
T4 sequence (Q969S8 whole entry): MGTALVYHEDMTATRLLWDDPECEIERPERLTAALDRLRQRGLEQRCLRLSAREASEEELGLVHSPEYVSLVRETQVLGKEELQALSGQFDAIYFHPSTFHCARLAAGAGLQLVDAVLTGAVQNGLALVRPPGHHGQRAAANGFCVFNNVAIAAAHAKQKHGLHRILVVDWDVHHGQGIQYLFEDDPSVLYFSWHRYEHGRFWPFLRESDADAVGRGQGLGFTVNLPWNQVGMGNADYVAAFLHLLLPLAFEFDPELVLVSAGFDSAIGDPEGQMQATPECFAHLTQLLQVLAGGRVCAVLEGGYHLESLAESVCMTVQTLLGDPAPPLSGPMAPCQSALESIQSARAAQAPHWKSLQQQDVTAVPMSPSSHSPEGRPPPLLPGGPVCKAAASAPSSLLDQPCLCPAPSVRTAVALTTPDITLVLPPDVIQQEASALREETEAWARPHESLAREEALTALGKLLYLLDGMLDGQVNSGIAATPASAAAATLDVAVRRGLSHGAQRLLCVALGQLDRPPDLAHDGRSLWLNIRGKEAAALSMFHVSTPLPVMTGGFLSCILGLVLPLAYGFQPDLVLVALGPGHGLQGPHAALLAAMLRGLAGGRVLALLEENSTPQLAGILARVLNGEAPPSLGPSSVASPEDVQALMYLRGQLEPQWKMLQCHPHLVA
Description: Inhibition of HDAC10 (unknown origin)

[16] = target: T5, Histone deacetylase 11 (Homo sapiens, UniProt Q96DB2)
T5 sequence (Q96DB2 whole entry): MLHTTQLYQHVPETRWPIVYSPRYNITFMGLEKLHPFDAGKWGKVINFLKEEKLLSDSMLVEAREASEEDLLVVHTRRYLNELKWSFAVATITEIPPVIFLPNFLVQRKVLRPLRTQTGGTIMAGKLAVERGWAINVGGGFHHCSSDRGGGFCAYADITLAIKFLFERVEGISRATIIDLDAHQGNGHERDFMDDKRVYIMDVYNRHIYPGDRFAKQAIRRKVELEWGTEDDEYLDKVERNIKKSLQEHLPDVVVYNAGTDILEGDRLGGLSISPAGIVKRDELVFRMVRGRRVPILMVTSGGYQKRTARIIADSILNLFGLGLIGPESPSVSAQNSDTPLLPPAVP
Description: Inhibition of HDAC11 (unknown origin)

[17] = tested on: NCI-H2228; test: Antiproliferative activity against human NCI-H2228 cells incubated for 24 hrs by MTT assay; assay type: functional, cell-based; settings: NCI-H2228, 24 h
[18] = tested on: Huh-7; test: Antiproliferative activity against human Huh-7 cells incubated for 24 hrs by MTT assay; assay type: functional, cell-based; settings: Huh-7, 24 h
[19] = tested on: MDA-MB-231; test: cells; assay type: functional, cell-based; settings: Homo sapiens, MDA-MB-231, 24 h
[20] = tested on: PC-3; test: Antiproliferative activity against human PC-3 cells incubated for 24 hrs in presence of SAHA by MTT assay; assay type: functional, cell-based; settings: PC-3, 24 h
[21] = tested on: NCI-H2228; test: Antiproliferative activity against human NCI-H2228 cells incubated for 24 hrs in presence of SAHA by MTT assay; assay type: functional, cell-based; settings: NCI-H2228, 24 h
[22] = tested on: Huh-7; test: Antiproliferative activity against human Huh-7 cells incubated for 24 hrs in presence of SAHA by MTT assay; assay type: functional, cell-based; settings: Huh-7, 24 h
[23] = tested on: NCI-H1975; test: Inhibition of colony formation in human NCI-H1975 cells incubated for 24 hrs followed by re-culturing in fresh medium without compound measured after 14 days in presence of SAHA by crystal violet staining based analysis relative to control; assay type: functional
[24] = tested on: NCI-H1975; test: Inhibition of cell migration in human NCI-H1975 cells measured after 24 to 48 hrs in presence of SAHA by wound healing assay relative to control; assay type: functional; settings: time 24-48 hrs
[25] = tested on: NCI-H1975; test: Induction of cell cycle arrest in human NCI-H1975 cells assessed as accumulation at G2/M phase incubated for 48 hrs in presence of SAHA by PI staining based flow cytometry relative to control; assay type: functional
[26] = tested on: NCI-H1975; test: Induction of apoptosis in human NCI-H1975 cells incubated for 24 hrs in presence of SAHA by Annexin V-FITC/PI staining based flow cytometry relative to control; assay type: functional
[27] = tested on: NCI-H1975; test: Antitumor activity against human NCI-H1975 cells xenografted in BALB/c nude mouse at 10 mg/kg, ip bid treated for 21 days in presence of SAHA relative to control; assay type: functional; settings: time 21 day
[28] = Toxicity BALB/c nude mouse xenografted with human NCI-H1975 cells assessed as body weight loss at 10 mg/kg, ip bid in presence of SAHA treated for 21 days (Rvb > 11.5 %); assay type: organism-based; settings: in vivo, 504 h, time 21 day
[29] = tested on: HCT-116; test: cells; settings: Homo sapiens, HCT-116, 24 h
Description: Antiproliferative activity against human HCT-116 cells incubated for 24 hrs in presence of SAHA by MTT assay

[30] = tested on: MCF7; test: cells; settings: Homo sapiens, MCF7, 24 h
Description: Antiproliferative activity against human MCF7 cells incubated for 24 hrs in presence of SAHA by MTT assay

[31] = tested on: MDA-MB-231; test: cells; settings: Homo sapiens, MDA-MB-231, 24 h
Description: Antiproliferative activity against human MDA-MB-231 cells incubated for 24 hrs in presence of SAHA by MTT assay

Histone deacetylase 3, sequence (O15379 whole entry): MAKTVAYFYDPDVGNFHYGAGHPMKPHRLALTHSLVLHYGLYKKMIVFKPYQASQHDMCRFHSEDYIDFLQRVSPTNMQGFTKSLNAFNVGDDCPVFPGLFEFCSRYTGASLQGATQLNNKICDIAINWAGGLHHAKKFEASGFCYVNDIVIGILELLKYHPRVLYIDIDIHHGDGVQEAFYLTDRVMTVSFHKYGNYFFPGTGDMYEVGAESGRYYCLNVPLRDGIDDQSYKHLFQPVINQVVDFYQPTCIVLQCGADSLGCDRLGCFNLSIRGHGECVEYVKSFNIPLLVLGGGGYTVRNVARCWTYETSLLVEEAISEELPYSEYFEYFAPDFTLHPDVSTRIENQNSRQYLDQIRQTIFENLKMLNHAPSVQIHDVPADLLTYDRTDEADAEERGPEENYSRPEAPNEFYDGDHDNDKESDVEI
Histone deacetylase 2, sequence (Q92769 whole entry): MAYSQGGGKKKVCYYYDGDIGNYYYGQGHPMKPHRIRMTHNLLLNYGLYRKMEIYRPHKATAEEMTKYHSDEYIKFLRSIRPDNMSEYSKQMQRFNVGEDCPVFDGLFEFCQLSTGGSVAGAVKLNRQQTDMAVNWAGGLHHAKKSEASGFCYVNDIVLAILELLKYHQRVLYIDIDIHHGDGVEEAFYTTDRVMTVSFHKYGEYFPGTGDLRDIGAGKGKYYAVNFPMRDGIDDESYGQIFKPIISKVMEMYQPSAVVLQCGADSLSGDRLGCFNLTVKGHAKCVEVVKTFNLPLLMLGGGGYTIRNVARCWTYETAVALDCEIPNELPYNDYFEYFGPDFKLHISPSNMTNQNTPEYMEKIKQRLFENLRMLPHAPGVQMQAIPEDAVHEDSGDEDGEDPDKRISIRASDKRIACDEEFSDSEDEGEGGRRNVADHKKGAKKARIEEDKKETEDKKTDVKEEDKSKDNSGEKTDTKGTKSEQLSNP
Histone deacetylase 9, sequence (Q9UKV0 whole entry): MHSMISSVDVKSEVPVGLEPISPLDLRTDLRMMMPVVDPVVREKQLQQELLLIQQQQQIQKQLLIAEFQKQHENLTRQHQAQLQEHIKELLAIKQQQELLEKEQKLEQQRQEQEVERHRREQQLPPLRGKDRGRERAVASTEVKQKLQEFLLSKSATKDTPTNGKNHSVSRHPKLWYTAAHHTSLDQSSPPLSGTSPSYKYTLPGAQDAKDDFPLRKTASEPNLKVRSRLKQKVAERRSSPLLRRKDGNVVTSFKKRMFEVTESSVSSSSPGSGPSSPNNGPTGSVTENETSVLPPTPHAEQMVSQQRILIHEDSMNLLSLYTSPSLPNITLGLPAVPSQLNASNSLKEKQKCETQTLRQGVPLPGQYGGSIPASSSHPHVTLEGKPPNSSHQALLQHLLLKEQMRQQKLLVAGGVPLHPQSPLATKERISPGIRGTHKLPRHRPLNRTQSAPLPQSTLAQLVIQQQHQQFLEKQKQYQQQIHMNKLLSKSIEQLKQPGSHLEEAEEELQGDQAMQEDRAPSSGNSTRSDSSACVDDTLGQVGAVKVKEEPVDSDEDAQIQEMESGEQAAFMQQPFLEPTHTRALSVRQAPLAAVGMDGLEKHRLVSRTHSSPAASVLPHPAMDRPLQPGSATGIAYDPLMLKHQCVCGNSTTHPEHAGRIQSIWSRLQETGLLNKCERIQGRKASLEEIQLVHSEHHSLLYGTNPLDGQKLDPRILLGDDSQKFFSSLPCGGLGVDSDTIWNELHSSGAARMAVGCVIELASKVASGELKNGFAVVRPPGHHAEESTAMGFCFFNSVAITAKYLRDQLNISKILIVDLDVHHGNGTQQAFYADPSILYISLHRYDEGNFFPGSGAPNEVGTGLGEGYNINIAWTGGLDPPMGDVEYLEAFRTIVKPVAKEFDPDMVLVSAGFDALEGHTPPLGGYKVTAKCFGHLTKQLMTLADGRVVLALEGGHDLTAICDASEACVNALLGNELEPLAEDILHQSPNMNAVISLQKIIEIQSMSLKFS
Histone deacetylase 5, sequence (Q9UQL6 whole entry): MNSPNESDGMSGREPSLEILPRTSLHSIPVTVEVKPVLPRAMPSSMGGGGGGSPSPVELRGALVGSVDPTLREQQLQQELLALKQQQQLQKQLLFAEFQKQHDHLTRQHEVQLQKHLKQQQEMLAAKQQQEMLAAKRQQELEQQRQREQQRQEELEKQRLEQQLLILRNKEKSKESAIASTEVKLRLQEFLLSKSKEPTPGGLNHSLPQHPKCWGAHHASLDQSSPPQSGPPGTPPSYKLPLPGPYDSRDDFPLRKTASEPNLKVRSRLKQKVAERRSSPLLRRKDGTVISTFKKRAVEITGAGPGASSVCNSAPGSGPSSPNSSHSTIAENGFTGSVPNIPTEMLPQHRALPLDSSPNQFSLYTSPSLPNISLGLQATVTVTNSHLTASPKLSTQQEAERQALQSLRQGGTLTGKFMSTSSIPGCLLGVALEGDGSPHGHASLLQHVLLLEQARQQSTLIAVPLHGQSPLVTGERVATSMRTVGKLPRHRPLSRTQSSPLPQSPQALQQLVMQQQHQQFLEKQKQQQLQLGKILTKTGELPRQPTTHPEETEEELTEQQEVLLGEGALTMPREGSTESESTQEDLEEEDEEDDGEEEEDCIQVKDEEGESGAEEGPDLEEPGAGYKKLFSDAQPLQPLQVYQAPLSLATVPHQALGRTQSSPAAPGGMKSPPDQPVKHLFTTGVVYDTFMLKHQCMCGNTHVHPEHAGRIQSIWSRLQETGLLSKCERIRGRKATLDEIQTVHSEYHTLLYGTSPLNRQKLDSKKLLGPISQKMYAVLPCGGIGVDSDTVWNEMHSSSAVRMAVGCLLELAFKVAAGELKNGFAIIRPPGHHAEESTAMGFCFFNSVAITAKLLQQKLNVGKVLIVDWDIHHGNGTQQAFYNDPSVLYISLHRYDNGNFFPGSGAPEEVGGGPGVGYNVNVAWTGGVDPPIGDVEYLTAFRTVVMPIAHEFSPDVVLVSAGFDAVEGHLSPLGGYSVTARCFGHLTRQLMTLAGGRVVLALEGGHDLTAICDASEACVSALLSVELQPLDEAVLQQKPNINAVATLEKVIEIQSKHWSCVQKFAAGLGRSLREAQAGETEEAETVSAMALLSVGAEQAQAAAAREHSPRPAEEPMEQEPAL
Histone deacetylase 4, sequence (P56524 whole entry): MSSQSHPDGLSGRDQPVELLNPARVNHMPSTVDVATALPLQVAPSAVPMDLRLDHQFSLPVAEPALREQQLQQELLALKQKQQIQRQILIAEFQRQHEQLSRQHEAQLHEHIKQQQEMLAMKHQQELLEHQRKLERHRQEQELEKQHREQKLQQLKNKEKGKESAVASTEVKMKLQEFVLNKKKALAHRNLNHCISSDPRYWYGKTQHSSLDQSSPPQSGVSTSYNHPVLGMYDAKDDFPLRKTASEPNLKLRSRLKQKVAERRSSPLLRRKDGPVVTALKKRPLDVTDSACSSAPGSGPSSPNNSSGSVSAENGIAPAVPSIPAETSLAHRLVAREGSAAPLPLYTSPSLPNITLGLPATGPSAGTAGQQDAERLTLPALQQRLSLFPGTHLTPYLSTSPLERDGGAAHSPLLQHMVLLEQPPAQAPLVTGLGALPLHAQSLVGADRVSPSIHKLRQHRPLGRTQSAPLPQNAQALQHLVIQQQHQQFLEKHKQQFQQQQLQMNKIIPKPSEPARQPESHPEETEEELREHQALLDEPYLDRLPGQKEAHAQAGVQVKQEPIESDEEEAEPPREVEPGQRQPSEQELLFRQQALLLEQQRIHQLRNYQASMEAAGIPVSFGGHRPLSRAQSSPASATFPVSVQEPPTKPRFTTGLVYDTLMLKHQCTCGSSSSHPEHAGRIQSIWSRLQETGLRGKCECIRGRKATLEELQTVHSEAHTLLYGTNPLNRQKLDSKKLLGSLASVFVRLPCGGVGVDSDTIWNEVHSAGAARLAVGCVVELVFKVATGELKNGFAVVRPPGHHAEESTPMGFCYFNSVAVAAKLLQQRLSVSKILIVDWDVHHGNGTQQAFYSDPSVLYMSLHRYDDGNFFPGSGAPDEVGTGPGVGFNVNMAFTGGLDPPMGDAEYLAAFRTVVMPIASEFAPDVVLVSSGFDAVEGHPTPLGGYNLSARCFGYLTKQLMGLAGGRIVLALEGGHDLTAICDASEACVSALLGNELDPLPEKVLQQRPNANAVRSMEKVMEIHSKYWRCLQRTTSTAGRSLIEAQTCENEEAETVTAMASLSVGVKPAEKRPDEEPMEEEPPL

SMILES: O=C(CCCCCCC(=O)Nc1ccccc1)NO [VORINOSTAT]
Activity [1]: 19.4% | Activity [2]: 30.4% | Activity [3]: 35% | Activity [4]: 46% | Activity [5]: 56.1% | Activity [6]: 22.4%

pIC50 [7]: 8.52 | pIC50 [8]: 8.52 | pIC50 [9]: < 5.30 | pIC50 [10]: < 5.30 | pIC50 [11]: 8.40 | pIC50 [12]: < 5.30 | pIC50 [13]: < 6.00 | pIC50 [14]: < 5.30 | pIC50 [15]: 8.22 | pIC50 [16]: < 5.30
SMILES: O=C(CCCCCCn1c2cc3c(cc2c2ncc4ccccc4c21)OCO3)NO

pIC50 [17]: 5.46 | pIC50 [18]: < 5.10 | pIC50 [19]: < 5.10 | pIC50 [20]: 5.91 | pIC50 [21]: 5.84 | pIC50 [22]: 5.75 | pIC50 [29]: 6.14 | pIC50 [30]: 6.01 | pIC50 [31]: 5.87
SMILES: CCc1c2c(nc3ccc(OC(=O)N4CCC(N5CCCCC5)CC4)cc13)-c1cc3c(c(=O)n1C2)COC(=O)[C@]3(O)CC [IRINOTECAN]
inhibition (INH) [23]: 61.8% | inhibition (INH) [24]: 40.7% | Activity [25]: 35% | Activity [26]: 56.1% | inhibition in vivo at 10 mg/kg ([27]; Mus musculus, NCI-H1975, 504 h, read-out: TGI): 65.8% | T/C [27]: 39.1% | Activity [28]: 22.4%
